Values after ≈ are worked out from the molar mass of the structure shown. Read-outs that look alike come from different tables or passages of the source. Marks after values point to notes of the source that are not given here.
Assays:
NQO1 = NQO1 (Homo sapiens, UniProt P15559); test: NQO1 enzymatic measurements in vitro; format: biochemical; details: 1 μM substrate
Experimental: As further evidence that the activity of these DNQ derivatives is dependent on their ability to be reduced by NQO1, full enzymatic measurements in vitro were performed. We found a strong correlation between catalytic efficiency of substrates in vitro and their cell culture toxicity. […] This provides strong evidence that the cytotoxicity of DNQ and its derivatives are dependent primarily upon the activity of NQO1 within the cell.

MCF-7 cells = test: Cytotoxicity to MCF-7 cells with or without 25 μM dicoumarol (sulforhodamine B assay); format: cell-based, human; details: for IC50: Homo sapiens; for Fold Protection of MCF7 cells w/ 25 μM dicoumarol: Table 1
Experimental: The NQO1-dependent cytotoxicity of the first set of derivatives was determined in MCF-7 cells which express high levels of NQO1. Cells were exposed to DNQ for 2 hours in the presence or absence of 25 μM DIC. The media was then removed and cells were washed once with media then fresh media was added and the cells were incubated for 72 hours. Cell death was assessed using the sulforhodamine B assay previously described. […] Substitution off the nitrogen appeared well tolerated (4-14 and 4-15).
The DNQ derivatives synthesized were assayed for their toxicity to MCF-7 cells with or without DIC. The data from these experiments is organized in Table 4.2. […] This tolerance of sterically-demanding substituents corresponds with a flexible and promiscuous NQO1 active site. The poor activity of hydroxyl derivative 4-41 may be a result of either poor binding with the largely hydrophobic NQO1 active site or with an excessively strong substrate-enzyme interaction because of hydrogen bonding.

[1] = Aqueous solubility in pH 7.4 PBS by LC-MS; format: physicochemical; details: phosphate buffered saline, pH 7.4, aqueous buffer, thermodynamic from solid, PBS pH 7.4; Table 4.3
Experimental: The aqueous solubility of DNQ at pH 7.4 in phosphate buffered saline (PBS) was measured by LC-MS. DNQ was sonicated for 30 minutes in PBS then undissolved solid was removed by filtration through a 0.45 μm syringe filter and the filtrate was analyzed by LC-MS (λ=275 nm, ESI-TOF in negative mode). The optimal sonication time was determined by sonicating DNQ for 1, 5, 10, and 30 minutes. While the concentration of DNQ in solution increased substantially between 1, 5, and 10 minutes, there was only a minor difference between 10 and 30 minutes. During the 30 minute sonication the water bath warmed to 45° C. (samples were cooled to room temperature before filtration). A calibration curve was generated from 1-100 μM by dissolving DNQ in methanol to a concentration of 500 μM and making dilutions of this stock in 80:20 water:methanol. The calibration curve (measure by UV absorbance) was linear over this range; 1 μM was approximately the limit of detection. […] The solution was very pale yellow.
The aqueous solubility of the compounds was determined by an LC-MS assay as described in the specification above. We applied the calibration curve generated for DNQ to the derivatives under the assumption that the UV profile of the derivatives of DNQ would be similar to that of DNQ.
After sonication and filtration most of the aqueous solutions were colorless. The solutions of DNQ, 4-31, and 4-37 were faintly yellow while 4-8, 4-14 and 4-41 were substantially more colored. The solution of 4-8, 4-14 and 4-41 were diluted 10-fold with PBS prior to LC-MS analysis to ensure that the concentrations fell within the range of the calibration curve.

[2] = Solubility in organic solvents; format: physicochemical; details: organic solvent or mixture, thermodynamic from solid; THF; Table 1
[3] = Solubility in organic solvents; format: physicochemical; details: for solubility: organic solvent or mixture, thermodynamic from solid
Experimental: The solubility of DNQ derivatives in organic solvents was determined by measuring the amount of a given solvent required to dissolve a known amount of compound. Solvent was added to the compound in 50 μL aliquots and the slurry was sonicated. […] Solubility was assessed in DMSO, dichloromethane, and 33% methanol in dichloromethane (FIGS. 9, 10, and 11, respectively).

[4] = MCF7, 2 h, Table 4.1, 2 h exposure, no DIC, ± s.e., read-out: IC50 vs. MCF-7 cells
[5] = MCF7, Table 1, read-out: MCF7 IC50
[6] = MCF7, classification in figure legends of FIGS. 7-11, read-out: IC50 ("active" / generally "inactive" compounds)
[7] = MCF7, read-out: IC50 vs. MCF-7 cells +25 μM DIC, Table 4.1, +25 μM DIC, ± s.e.
[8] = 2:1 CH2Cl2:MeOH, Table 4.3, read-out: Solubility in 2:1 CH2Cl2:MeOH
[9] = CH2Cl2:MeOH 2:1, Table 1, read-out: CH2Cl2:MeOH 2:1 solubility
[10] = CH2Cl2, Table 1, read-out: CH2Cl2 solubility
[11] = DMSO, Table 1, read-out: DMSO solubility
[12] = MCF7, Table 4.2, no DIC, ± s.e., read-out: IC50 vs. MCF-7 cells
[13] = MCF7, read-out: IC50 vs. MCF-7 cells +25 μM DIC, Table 4.2, +25 μM DIC, ± s.e.

NQO1, sequence (P15559 whole entry): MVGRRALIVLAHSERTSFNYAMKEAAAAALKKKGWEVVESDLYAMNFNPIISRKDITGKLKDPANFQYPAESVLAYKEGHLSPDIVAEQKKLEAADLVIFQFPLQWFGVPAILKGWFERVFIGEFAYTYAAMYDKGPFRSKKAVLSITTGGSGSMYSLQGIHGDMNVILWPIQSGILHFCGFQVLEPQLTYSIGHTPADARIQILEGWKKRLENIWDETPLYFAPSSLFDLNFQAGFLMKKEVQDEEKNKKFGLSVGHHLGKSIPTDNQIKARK

NQO1 Initial Velocity @ 1 μM (NQO1) | solubility at 30 min [1] | solubility [2] | Solubility in CH2Cl2 ([3]; CH2Cl2, Table 4.3) | Solubility in DMSO ([3]; DMSO, Table 4.3) | solubility [3, 8] | solubility [3, 9] | solubility [3, 10] | solubility [3, 11] | SMILES | IC50 (MCF-7 cells; [4]) | IC50 (MCF-7 cells; [5]) | IC50 (MCF-7 cells; [6]) | IC50 (MCF-7 cells; [7]) | Fold Protection of MCF7 cells w/ 25 μM dicoumarol (MCF-7 cells) | Fold protection by DIC (MCF-7 cells; Table 4.1) | IC50 (MCF-7 cells; [12]) | IC50 (MCF-7 cells; [13]) | Fold protection by DIC (MCF-7 cells; Table 4.2)
600 ± 100 | 0.059 mM (≈ 18.4 µg/mL) | 4.6 mM (≈ 1440 µg/mL) | 6.1 mM (≈ 1910 µg/mL) | 10 mM (≈ 3120 µg/mL) | 18 mM (≈ 5620 µg/mL) | 18 mM (≈ 5620 µg/mL) | 6.1 mM (≈ 1910 µg/mL) | 10 mM (≈ 3120 µg/mL) | CCCc1cc(=O)n(C)c2c1C(=O)c1c(C)cc(=O)[nH]c1C2=O [Compound 4-9] | 0.9 ± 0.25 µM | 0.93 µM | > 0.5 µM | 2.6 ± 0.6 µM | 2.8 | 2.8 |  |  | 
250 ± 20 | 0.084 mM (≈ 26.2 µg/mL) | 6.2 mM (≈ 1940 µg/mL) | 10 mM (≈ 3120 µg/mL) | 21 mM (≈ 6560 µg/mL) | 46 mM (≈ 14400 µg/mL) | 46 mM (≈ 14400 µg/mL) | 10 mM (≈ 3120 µg/mL) | 21 mM (≈ 6560 µg/mL) | CCc1cc(=O)[nH]c2c1C(=O)c1c(CC)cc(=O)n(C)c1C2=O [Compound 4-29] |  | 5 µM | > 0.5 µM |  | 1.2 |  | 3.8 ± 1.2 µM | 4.8 ± 1.1 µM | 1.3
 | 0.105 mM (≈ 31.3 µg/mL) | 3.9 mM (≈ 1160 µg/mL) | 11 mM (≈ 3280 µg/mL) | 16 mM (≈ 4770 µg/mL) | 35 mM (≈ 10400 µg/mL) | 35 mM (≈ 10400 µg/mL) | 11 mM (≈ 3280 µg/mL) | 16 mM (≈ 4770 µg/mL) | CCc1cc(=O)[nH]c2c1C(=O)c1c(C)cc(=O)n(C)c1C2=O [Compound 4-11] | 0.55 ± 0.06 µM |  | > 0.5 µM | 4.9 ± 0.8 µM |  | 8.9 |  |  | 
250* | 0.035 mM (≈ 10.9 µg/mL) |  | 2.0 mM (≈ 625 µg/mL) | 4.2 mM (≈ 1310 µg/mL) | 10 mM (≈ 3120 µg/mL) | 10 mM (≈ 3120 µg/mL) | 2 mM (≈ 625 µg/mL) | 4.2 mM (≈ 1310 µg/mL) | CCCc1cc(=O)[nH]c2c1C(=O)c1c(C)cc(=O)n(C)c1C2=O [Compound 4-12] | 3.4 ± 0.6 µM | 3.4 µM | > 0.5 µM | 5.3 ± 1.2 µM | 1.6 | 1.6 |  |  | 
75 ± 4 | < 0.005 mM | 17 mM (≈ 6500 µg/mL) | 35 mM (≈ 13400 µg/mL) | 7.1 mM (≈ 2720 µg/mL) | 64 mM (≈ 24500 µg/mL) | 64 mM (≈ 24500 µg/mL) | 35 mM (≈ 13400 µg/mL) | 7.1 mM (≈ 2720 µg/mL) | CCCCn1c2c(c(CCC)cc1=O)C(=O)c1c(CCC)cc(=O)[nH]c1C2=O [Compound 4-28] |  | 36 µM | > 0.5 µM |  | 0.9 |  | 36 ± 11 µM | 31 ± 10 µM | 0.9
1300 ± 200 | < 0.005 mM | 17 mM (≈ 6020 µg/mL) | 24 mM (≈ 8510 µg/mL) | 14 mM (≈ 4960 µg/mL) | 75 mM (≈ 26600 µg/mL) | 75 mM (≈ 26600 µg/mL) | 24 mM (≈ 8510 µg/mL) | 14 mM (≈ 4960 µg/mL) | CCCCn1c2c(c(CCC)cc1=O)C(=O)c1c(C)cc(=O)[nH]c1C2=O [Compound 4-26] |  | 0.77 µM | > 0.5 µM |  | 2.8 |  | 0.77 ± 0.19 µM | 2.2 ± 0.6 µM | 2.8
350 ± 10 | < 0.005 mM | 12 mM (≈ 4250 µg/mL) | 17 mM (≈ 6020 µg/mL) | 10 mM (≈ 3540 µg/mL) | 49 mM (≈ 17400 µg/mL) | 49 mM (≈ 17400 µg/mL) | 17 mM (≈ 6020 µg/mL) | 10 mM (≈ 3540 µg/mL) | CCCCn1c2c(c(C)cc1=O)C(=O)c1c(CCC)cc(=O)[nH]c1C2=O [Compound 4-27] |  | 6.3 µM | > 0.5 µM |  | 1.1 |  | 6.3 ± 1.1 µM | 6.8 ± 1.6 µM | 1.1

Reference: US10285986B2, “Compounds and anti-tumor NQO1 substrates” (The Board of Trustees of the University of Illinois, priority 2011, dated 2019)
